These are literature values, as cited in patent US8551986B2, “Treatment of sequelae of psychiatric disorders” (The McLean Hospital Corporation, priority 2005, dated 2013).

The conditions of the data set: human studies, all but one study; cited from earlier work.

Consider `C=C1CC[C@@]2(O)[C@H]3Cc4ccc(O)c5c4[C@@]2(CCN3CC2CC2)[C@H]1O5` [nalmefene], for which the caloric intake entry is on record as “significant decreases”.

With `O=C1CC[C@@]2(O)[C@H]3Cc4ccc(O)c5c4[C@@]2(CCN3CC2CC2)[C@H]1O5` [naltrexone], the caloric intake result is given as “significant decreases”.
